Data: PubChem BioAssay AID2060905 (Molecular Pharmacology Branch, DTP, NCI, 2025)

System: 282377-053-R-J1-PDC complex spheroid viability
Test: Anticancer human tumor 282377-053-R-J1-PDC patient-derived colon adenocarcinoma cell line growth inhibition [RAS]
Settings: for IC50: curve of first compound; for viability, T/C: stronger effect = lower value
Summary of the method: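 Agents were tested in combination matrices in half-log decrements from a top concentration at or near clinical Cmax (10 microM if undetermined). Targets were multi-cell spheroids of tumour lines plus HUVEC and MSC stromal cells.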
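Also: spheroids exposed to agents for seven days before readout.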
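For viability, T/C in this document: luminescence viability as percent of DMSO vehicle control wells.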

**Q.** With O=C(c1ccc(F)c(F)c1Nc1ccc(I)cc1F)N1CC(O)([C@@H]2CCCCN2)C1 + C=CC(=O)N1CCN(c2nc(OCC3CCCN3C)nc3c(F)c(-c4nc(N)cc(C)c4C(F)(F)F)c(Cl)cc23)C(C)C1 as the compound, how does the IC50 (second compound 0.00316 µM) read?
**A.** 0.0808 µM

**Q.** And the IC50 (second compound 0.01 µM)?
**A.** 0.104 µM

**Q.** And the IC50 (second compound 0.0316 µM)?
**A.** 0.13 µM

**Q.** What about the IC50 (second compound 0.1 µM) of the same compound?
**A.** 0.176 µM

**Q.** What about the IC50 (second compound 0.316 µM) of the same compound?
**A.** 0.145 µM

**Q.** What about the IC50 (second compound 1 µM) of the same compound?
**A.** 0.141 µM

**Q.** What about the viability, T/C (second compound 0.00316 µM, first compound 0.00316 µM) of the same compound?
**A.** 90.2%

**Q.** And the viability, T/C (second compound 0.00316 µM, first compound 0.01 µM)?
**A.** 88.3%

**Q.** What about the viability, T/C (second compound 0.00316 µM, first compound 0.0316 µM) of the same compound?
**A.** 77.2%

**Q.** What about the viability, T/C (second compound 0.00316 µM, first compound 0.1 µM) of the same compound?
**A.** 41.4%

**Q.** And the viability, T/C (second compound 0.00316 µM, first compound 0.316 µM)?
**A.** 32.6%

**Q.** What about the viability, T/C (second compound 0.00316 µM, first compound 1 µM) of the same compound?
**A.** 18.4%

**Q.** What about the viability, T/C (second compound 0.01 µM, first compound 0.00316 µM) of the same compound?
**A.** 102%

**Q.** What about the viability, T/C (second compound 0.01 µM, first compound 0.01 µM) of the same compound?
**A.** 94%

**Q.** What about the viability, T/C (second compound 0.01 µM, first compound 0.0316 µM) of the same compound?
**A.** 68.8%

**Q.** What about the viability, T/C (second compound 0.01 µM, first compound 0.1 µM) of the same compound?
**A.** 52.3%

**Q.** What about the viability, T/C (second compound 0.01 µM, first compound 0.316 µM) of the same compound?
**A.** 31.6%

**Q.** What about the viability, T/C (second compound 0.01 µM, first compound 1 µM) of the same compound?
**A.** 17.7%

**Q.** What about the viability, T/C (second compound 0.0316 µM, first compound 0.00316 µM) of the same compound?
**A.** 88.5%

**Q.** What about the viability, T/C (second compound 0.0316 µM, first compound 0.01 µM) of the same compound?
**A.** 87.3%

**Q.** And the viability, T/C (second compound 0.0316 µM, first compound 0.0316 µM)?
**A.** 81.3%

**Q.** What about the viability, T/C (second compound 0.0316 µM, first compound 0.1 µM) of the same compound?
**A.** 56.1%

**Q.** What about the viability, T/C (second compound 0.0316 µM, first compound 0.316 µM) of the same compound?
**A.** 28.9%

**Q.** And the viability, T/C (second compound 0.0316 µM, first compound 1 µM)?
**A.** 20.7%

**Q.** And the viability, T/C (second compound 0.1 µM, first compound 0.00316 µM)?
**A.** 95.6%

**Q.** And the viability, T/C (second compound 0.1 µM, first compound 0.01 µM)?
**A.** 86.2%

**Q.** And the viability, T/C (second compound 0.1 µM, first compound 0.0316 µM)?
**A.** 95.1%

**Q.** And the viability, T/C (second compound 0.1 µM, first compound 0.1 µM)?
**A.** 66.3%

**Q.** And the viability, T/C (second compound 0.1 µM, first compound 0.316 µM)?
**A.** 32.9%

**Q.** What about the viability, T/C (second compound 0.1 µM, first compound 1 µM) of the same compound?
**A.** 21.1%

**Q.** What about the viability, T/C (second compound 0.316 µM, first compound 0.00316 µM) of the same compound?
**A.** 101%

**Q.** What about the viability, T/C (second compound 0.316 µM, first compound 0.01 µM) of the same compound?
**A.** 95.8%

**Q.** What about the viability, T/C (second compound 0.316 µM, first compound 0.0316 µM) of the same compound?
**A.** 87.2%

**Q.** What about the viability, T/C (second compound 0.316 µM, first compound 0.1 µM) of the same compound?
**A.** 57.8%

**Q.** And the viability, T/C (second compound 0.316 µM, first compound 0.316 µM)?
**A.** 32.2%

**Q.** What about the viability, T/C (second compound 0.316 µM, first compound 1 µM) of the same compound?
**A.** 17.9%

**Q.** What about the viability, T/C (second compound 1 µM, first compound 0.00316 µM) of the same compound?
**A.** 98.3%

**Q.** What about the viability, T/C (second compound 1 µM, first compound 0.01 µM) of the same compound?
**A.** 93.7%

**Q.** And the viability, T/C (second compound 1 µM, first compound 0.0316 µM)?
**A.** 98.5%

**Q.** And the viability, T/C (second compound 1 µM, first compound 0.1 µM)?
**A.** 55.7%

**Q.** And the viability, T/C (second compound 1 µM, first compound 0.316 µM)?
**A.** 35.5%

**Q.** What about the viability, T/C (second compound 1 µM, first compound 1 µM) of the same compound?
**A.** 18%
